This is an account of results in US20090170867A1, “TRPV1 ANTAGONISTS INCLUDING SULFONAMIDE SUBSTITUENT AND USES THEREOF” (Shionogi & Co., Ltd., priority 2007, published 2009).

In brackets after ≈: the same amount, converted by molar mass. Where two headings read alike, the source gives them in different places. Where only a bound is given, the exact number is not on record here.

One data set can be described thus: Aqueous solubility. The class given is physicochemical. The conditions noted are these: aqueous solution.
The target of data set [1] is T1, human TRPV1 (Homo sapiens, UniProt Q8NER1).
T1 construct: using primers designed surrounding the complete hTRPV1 open reading frame; expressed in transfected cells; host or cells: CHO-K1 cells stably transfected with pcDNA3.1(-)-hVR1 plasmid
Kind of data set: Capsaicin-based assay, Protocol 2 (TRPV1/CHO cells, Fluo-4, FLIPR). The class given is cell-based. Conditions: capsaicin 100 nM final, mean ± SEM, number of trials in parentheses, read-out: TRPV1 IC50 Potency, Human Capsaicin CHO (hCAP-CHO). The procedure, abridged:
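CHO cells stably transfected with human TRPV1 cDNA, kept under G418 selection, loaded with 3 μM Fluo-4 for 1 h. Calcium fluorescence followed on FLIPR after a 15 s baseline against capsaicin challenge; compounds at final 100 μM to 1.5625 μM, curves fitted over the full time course.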

In data set [2] the target is T1, human TRPV1. As to the kind of experiment: pH-based assay, Protocol 2 (TRPV1/CHO cells, Fura-2 AM, FDSS-3000, pH 5.0-5.1). The class given is cell-based. The conditions noted are these: H2SO4 agonist, mean ± SEM, number of trials in parentheses, read-out: TRPV1 IC50 Potency, Human pH CHO (hpH-CHO). An excerpt: For Protocol 2, a Chinese Hamster Ovary cell line (CHO) that has been engineered to constitutively express human recombinant TRPV1 was used (TRPV1/CHO cells). The TRPV1/CHO cell line was generated as described below.
The resulting PCR products were purified from agarose gels using Gel Band Purification Kit (GE Healthcare Bioscience) and were subcloned into pCR-Blunt vector (Invitrogen). The cloned cDNA was fully sequenced using a fluorescent dye-terminator reagent (BigDye Terminator ver3.1 Cycle Sequencing Kit, Applied Biosystems) and ABI Prism 3100 genetic analyzer (Applied Biosystems). The pCR-Blunt vector containing the hTRPV1 cDNA was subjected to restriction digestion with EcoRI. The restriction fragment was subcloned into expression vector pcDNA3.1 (−) (Invitrogen) and named pcDNA3.1 (−)-hVR1 plasmid. The sequence of the cDNA encoding TRPV1 is available at GenBank accession number AJ277028.
CHO-K1 cells were maintained in growth medium consisting of α-MEM, 10% FBS (Hyclone), and 100 IU/mL of penicillin-100 μg/mL of streptomycin mixed solution (Nacalai Tesque, Japan) at 37° C. in an environment of humidified 95% air and 5% CO2. The cells were transfected with the pcDNA3.1 (−)-hVR1 plasmid using FuGENE6 (Roche) according to the manufacturer's protocol. 24 hr after transfection, neomycin-resistant cells were selected using 1 mg/mL G418 (Nacalai Tesque). After 2 weeks, individual colonies were picked, expanded, and screened for the expression of hTRPV1 in the capsaicin-induced Ca^2+ influx assay (see below) with a FLIPR (Molecular Devices). A clone with the largest Ca^2+ response to capsaicin was selected and re-cloned by the same procedure. The cells expressing hTRPV1 were cultured in the growth medium supplemented with 1 mg/mL G418.
TRPV1/CHO cells were seeded in the 96-well clear-bottom black-wall plate (Nunc) at densities of 1-2×10^4 cells/well and grown in 100 μL of culture medium (alpha-MEM supplemented with 10% FBS, 20 mM HEPES, 1 mg/mL geneticin and 1% antibiotic-antimycotic mixed stock solution) for 1-2 days before the experiment.
Different agonist solutions with sulfuric acid concentrations of from 15 mM to 18 mM (see FIG. 1) were prepared by diluting 1M sulfuric acid with measuring buffer. The different sulfuric acid concentrations in the agonist solutions were selected such that a 1:4 dilution would result in a final sulfuric acid concentration of between 3.0 mM to 3.6 mM, respectively, as indicated in FIG. 1.
The cells were stimulated using 3.0 mM (well number B1-6), 3.1 mM (C1-6), 3.2 mM (D1-6), 3.3 mM (E1-6), 3.4 mM (F1-6), 3.5 mM (G1-6), or 3.6 mM (H1-6) H2SO4 or pH 7.2 measuring buffer without H2SO4 (A1-6) (FIG. 2).
(1) Culture medium was removed using an 8-channel-pipette (Rainin, USA) from the 96-well plate and the wells were refilled with 100 μL of loading buffer (20 mM HEPES, 115 mM NaCl, 5.4 mM KCl, 0.8 mM MgCl2, 1.8 mM CaCl2, 13.8 mM D-glucose, 2.5 mM probenecid, pH 7.4) containing 5 μM Fura-2 AM (Dojin, Japan).
(2) The 96-well plate was incubated at 37° C. for 45 min.
(3) The loading buffer was removed from each well. The cells were subsequently washed twice with 150 μL of measuring buffer (20 mM HEPES, 115 mM NaCl, 5.4 mM KCl, 0.8 mM MgCl2, 5.0 mM CaCl2, 13.8 mM D-glucose, 0.1% BSA, pH 7.4) (no probenecid). The wells were then refilled with 80 μL of measuring buffer.
(4) After an incubation at 4° C. for 15 min, the 96-well plate was transferred to FDSS-3000 (Hamamatsu Photonics, Japan).
(5) The Fura-2 fluorescent intensity was monitored at a wavelength of 340 nm and at 380 nm, respectively, at a rate of 0.5 Hz for a total of 240 seconds.

Setting [3] is: pH 1.2, simulated gastric fluid, read-out: aqueous solubility at pH 1.2.
Where [4] appears, read: pH 6.8, aqueous buffer, read-out: aqueous solubility at pH 6.8.

T1 sequence (Q8NER1 whole entry): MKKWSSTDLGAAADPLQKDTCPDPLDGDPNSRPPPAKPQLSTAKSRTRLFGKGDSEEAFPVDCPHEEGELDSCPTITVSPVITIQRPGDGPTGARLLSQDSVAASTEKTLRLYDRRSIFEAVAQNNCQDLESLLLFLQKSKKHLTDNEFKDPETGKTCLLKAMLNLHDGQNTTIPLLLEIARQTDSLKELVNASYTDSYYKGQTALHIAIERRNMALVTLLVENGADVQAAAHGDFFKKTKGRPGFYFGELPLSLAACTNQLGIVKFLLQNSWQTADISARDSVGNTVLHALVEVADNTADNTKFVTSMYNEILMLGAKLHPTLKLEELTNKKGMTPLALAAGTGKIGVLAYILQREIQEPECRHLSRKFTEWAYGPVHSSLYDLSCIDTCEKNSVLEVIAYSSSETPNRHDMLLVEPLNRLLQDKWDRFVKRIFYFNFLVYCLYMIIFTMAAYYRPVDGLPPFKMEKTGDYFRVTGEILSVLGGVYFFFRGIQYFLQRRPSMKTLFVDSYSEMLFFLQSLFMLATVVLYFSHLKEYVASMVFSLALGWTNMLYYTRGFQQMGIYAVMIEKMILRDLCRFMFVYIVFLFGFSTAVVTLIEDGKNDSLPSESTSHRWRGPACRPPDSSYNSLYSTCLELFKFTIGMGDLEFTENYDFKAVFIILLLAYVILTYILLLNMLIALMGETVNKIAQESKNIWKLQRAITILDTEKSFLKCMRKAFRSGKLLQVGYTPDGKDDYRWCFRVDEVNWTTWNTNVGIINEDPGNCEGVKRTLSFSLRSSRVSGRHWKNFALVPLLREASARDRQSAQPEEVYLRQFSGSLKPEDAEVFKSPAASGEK

Usually solubility stands for the concentration that dissolves in the medium under given conditions. For orientation: IC50 means the concentration at which inhibition is half-maximal. `O=C(O)Cc1cnc(C2=CCN(C(=O)Nc3ccc(C(F)(F)F)cc3)CC2)c(Cl)c1` [Compound G6]: the solubility in the data set “Aqueous solubility” (setting [3]) and in “Aqueous solubility” (setting [4]) was over 50 µM in each case. The concentration for half-maximal inhibition (IC50) on human TRPV1 [1] is over 25 µM.

For `COC(=O)Cc1cnc(C2=CCN(C(=O)Nc3ccc(C(F)(F)F)cc3)CC2)c(Cl)c1` [Compound F6], the solubility is over 50 µM in the data set “Aqueous solubility” (setting [3]) and 9.2 µM (≈ 4.18 µg/mL) in “Aqueous solubility” (setting [4]). In addition, the IC50 on human TRPV1 [2] stood at 0.467 µM; at human TRPV1 [1], 0.864 µM.

With `O=C(Nc1ccc(C(F)(F)F)cc1)N1CCC(F)(c2ncc([C@H](O)CO)cc2F)CC1` [Compound N6], the solubility in the data set “Aqueous solubility” (setting [3]) and in “Aqueous solubility” (setting [4]) was over 50 µM in each case.

As for `O=C(Nc1ccc(S(=O)(=O)C(F)(F)F)cc1)N1CCC(F)(c2ncc([C@H](O)CO)cc2Cl)CC1` [Compound H1], the solubility in “Aqueous solubility” (setting [3]) and in “Aqueous solubility” (setting [4]) was over 50 µM each time. Moreover, at human TRPV1 [1], the IC50 was 0.0317 ± 0.0089 µM.

For the molecule `O=C(Nc1nc2ccc(F)cc2s1)N1CC=C(c2ncc(CO)cc2Cl)CC1` [Compound W2], the results for the half-maximal inhibitory concentration (IC50) on human TRPV1 [2] and on human TRPV1 [1] were 0.241 ± 0.0349 µM and 0.245 ± 0.0344 µM, respectively.

On to `N#CCc1cnc(C2=CCN(C(=O)Nc3ccc(C(F)(F)F)cc3)CC2)c(Cl)c1` [Compound E6, 4-(3-chloro-5-(cyanomethyl)pyridin-2-yl)-N-(4-(trifluoromethyl)phenyl)-5,6-dihydropyridine-1(2H)-carboxamide], for which the solubility was 27.2 µM (≈ 11.4 µg/mL) in the data set “Aqueous solubility” (setting [3]) and 9 µM (≈ 3.79 µg/mL) in “Aqueous solubility” (setting [4]). The half-inhibitory concentration (IC50) on human TRPV1 [1] amounted to 0.265 µM.

`O=C(Nc1nc2ccc(F)cc2s1)N1CCC(F)(c2ncc([C@@H](O)CO)cc2Cl)CC1` [Compound H4]: the IC50 at human TRPV1 [2] is 0.097 ± 0.0099 µM; on human TRPV1 [1] it was 0.176 ± 0.0284 µM.

For `O=C(Nc1ccc(C(F)(F)F)cn1)N1CC=C(c2ncc([C@H](O)CO)cc2Cl)CC1` [Compound K1], the concentration for half-maximal inhibition (IC50) on human TRPV1 [2] is 0.0395 µM; on human TRPV1 [1], 0.0351 ± 0.0088 µM.

As to `Cc1cc(NC(=O)N2CCC(F)(c3ncc([C@@H](O)CO)cc3Cl)CC2)ccc1OC(F)(F)F` [Compound V5], the IC50 turned out to be 0.0101 ± 0.0014 µM at human TRPV1 [2] and 0.0455 ± 0.0021 µM on human TRPV1 [1].

For `O=C(Nc1ccc(C(F)(F)F)c(F)c1)N1CC=C(c2ncccc2F)CC1` [Compound 202], the values for the 50% inhibitory concentration (IC50) at human TRPV1 [2] and on human TRPV1 [1] were 0.59 µM and 0.182 µM, respectively.

In the case of `O=C(Nc1nc2ccc(Cl)cc2s1)N1CCC(F)(c2ncc([C@@H](O)CO)cc2F)CC1` [Compound Z5], the 50% inhibitory concentration (IC50) on human TRPV1 [2] was found to be 0.0164 ± 0.0019 µM; at human TRPV1 [1], 0.0355 ± 0.0039 µM.

In the case of `O=C(Nc1ccc(C(F)(F)F)c(F)c1)N1CCC(F)(c2ncc([C@@H](O)CO)cc2F)CC1` [Compound A6], the IC50 worked out at 0.009 ± 0.0008 µM on human TRPV1 [2] and 0.0498 ± 0.0121 µM on human TRPV1 [1].

For the molecule `O=C(Nc1ccc(C(F)(F)F)c(Cl)c1)N1CC=C(c2ncc(CO)cc2Cl)CC1` [Compound L2], the IC50 came out at 0.0574 ± 0.0091 µM at human TRPV1 [2] and 0.153 ± 0.0244 µM on human TRPV1 [1].

On to `O=C(Nc1nc2ccc(Cl)cc2s1)N1CC=C(c2ncc([C@H](O)CO)cc2F)CC1` [Compound C4], for which the IC50 on human TRPV1 [2] was found to be 0.0186 ± 0.0028 µM; at human TRPV1 [1] it was 0.0662 ± 0.0075 µM.

Take `COc1cc(NC(=O)N2CCC(F)(c3ncc([C@H](O)CO)cc3F)CC2)ccc1C(F)(F)F` [Compound C5]: the IC50 at human TRPV1 [2] is 0.0399 ± 0.0079 µM; at human TRPV1 [1] it was 0.108 ± 0.0384 µM.

As for `Cc1ccc(NC(=O)N2CC=C(c3ncc([C@H](O)CO)cc3Cl)CC2)cc1C(F)(F)F` [Compound I5], the IC50 worked out at 0.118 ± 0.0275 µM at human TRPV1 [2] and 0.709 ± 0.0941 µM at human TRPV1 [1].
